PubChem BioAssay (NCI)
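Exposure lasted 48 hours, with cells grown in 96-well plates and compounds tested at five concentrations. GI50 = concentration required for 50% inhibition of growth. At the TGI there is no net growth.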

Assays:
Experiment in all cases: inhibition of tumour cell growth, NCI panel, 48 h
M14 melanoma = test system: M14 melanoma
HT29 colon = test system: HT29 colon
MOLT-4 leukemia = test system: MOLT-4 leukemia
UACC-257 melanoma = test system: UACC-257 melanoma
UACC-62 melanoma = test system: UACC-62 melanoma
NCI-H522 lung = test system: NCI-H522 lung
OVCAR-3 ovarian = test system: OVCAR-3 ovarian
A549 NSCLC = test system: A549 NSCLC
NCI-H23 lung = test system: NCI-H23 lung

Structure (SMILES) | GI50 (M14 melanoma) [µM] | TGI (M14 melanoma) [µM] | GI50 (HT29 colon) [µM] | TGI (HT29 colon) [µM] | GI50 (MOLT-4 leukemia) [µM] | TGI (MOLT-4 leukemia) [µM] | GI50 (UACC-257 melanoma) [µM] | TGI (UACC-257 melanoma) [µM] | GI50 (UACC-62 melanoma) [µM] | TGI (UACC-62 melanoma) [µM] | GI50 (NCI-H522 lung) [µM] | TGI (NCI-H522 lung) [µM] | GI50 (OVCAR-3 ovarian) [µM] | TGI (OVCAR-3 ovarian) [µM] | GI50 (A549 NSCLC) [µM] | TGI (A549 NSCLC) [µM] | GI50 (NCI-H23 lung) [µM] | TGI (NCI-H23 lung) [µM]
C[CH2][Sn]([CH2]C)([O]C(=O)c1ccc(F)cc1)[O][Sn]([CH2]C)([CH2]C)[O]C(=O)c1ccc(F)cc1 | > 100 | > 100 | > 100 | > 100 | 47.1 | > 100 | 41.1 | > 100 | > 100 | > 100 | 3.01 | 12.4 | > 100 | > 100 | > 100 | > 100 | 41 | > 100
COC1CC(OC)C(O)C(CO)O1 (stereo not given) |  | > 100 |  | > 100 |  | > 100 |  | > 100 |  | > 100 |  | > 100 |  | > 100 |  | > 100 |  | > 100
CCOC(=O)NC1CC2CCC1(OC)C=C2C (stereo not given) |  | > 100 |  | > 100 |  | > 100 |  | > 100 |  | > 100 |  | > 100 |  | > 100 |  | > 100 |  | > 100
C=C[C@H]1C=Cc2c(OC)cccc2[C@@H]1COP1(=S)NC(C)C(c2ccccc2)O1 (stereo not given in full) |  | > 100 |  | > 100 |  | > 100 |  |  |  | > 100 |  | > 100 |  | > 100 |  | > 100 |  | > 100
COC(=O)Cc1cc(=O)n2c([nH]c3ccccc32)c1C#N |  | > 100 |  | > 100 |  | > 100 |  | > 100 |  |  |  |  |  | > 100 |  | > 100 |  | > 100
c1ccc2c(CNCCCCCCCCCCCCNCc3cccc4ccccc34)cccc2c1 |  | 3.29 |  | 3.03 |  | 2.92 |  | 3.17 |  | 3.35 |  | 3.35 |  | 3.84 |  | 3.37 |  | 2.89
c1ccc2c3c(ccc2c1)-c1c(ccc2c(NCCCCN4CCCCC4)cccc12)C3 | 1.94 | 3.35 |  |  | 2.09 | > 100 | 1.89 | 4.92 | 1.79 | 3.24 | 3.42 | 9.22 | 1.21 | 2.52 | 1.47 | 2.79 | 1.7 | 3.16
Cc1ccccc1NC(=O)c1ccc([N+](=O)[O-])cc1 |  | > 100 |  | > 100 |  | > 100 |  | > 100 |  | > 100 |  | > 100 |  | > 100 |  | > 100 |  | > 100
CCCCCCCCCCCCC(CCCCCCCCCCCC)OP(=O)(O)O |  | > 100 |  | > 100 |  | > 100 |  | > 100 |  | > 100 |  | > 100 |  | > 100 |  | > 100 |  | > 100
O=C(Cc1ccccc1)NS(=O)(=O)c1ccccc1 |  | > 100 |  | > 100 |  | > 100 |  | > 100 |  | > 100 |  | > 100 |  | > 100 |  | > 100 |  | > 100
Cc1ccc(N2C(=O)C(Cl)=C(Cl)C2=O)cc1 |  | 36.7 |  | 33.3 |  | 46.5 |  | 63.9 |  |  |  | 28.6 |  | 30.5 |  | > 100 |  | 41.3
CC1=Nc2ccccc2C12C(c1ccccc1)C(c1ccccc1)C(=O)N1c3ccccc3CC12 (stereo not given) |  | > 100 |  | > 100 |  | > 100 |  | > 100 |  | > 100 |  | > 100 |  | > 100 |  | > 100 |  | > 100
CCOC(=O)C(C(=O)OCC)=c1sc(=C(C(=O)OCC)C(=O)OCC)s1 |  | > 100 |  | > 100 |  | > 100 |  | > 100 |  | > 100 |  | > 100 |  | > 100 |  | > 100 |  | > 100
Cc1c(-c2nnc(-c3cc(Cl)c(Cl)cc3Cl)o2)nnn1-c1ccnc2c(C(F)(F)F)cccc12 | 26.2 | 70.5 | 22.3 | 42.2 | 36.9 | > 100 |  |  | 26.5 | > 100 | 21.8 | 55.8 | 27.5 | 82.7 | 17.8 | 42.9 | 26.5 | 81.1
